Test results: ChEMBL document CHEMBL2073895, “Charged amino acids in the transmembrane domains are involved in the determination of the substrate specificity of rat Mrp2” (Mol Pharmacol, 2001)

B1: ATP-binding cassette sub-family C member 2 (Rattus norvegicus) (protein)
chain: MDKFCNSTFWDLSLLESPEADLPLCFEQTVLVWIPLGFLWLLAPWQLYSVYRSRTKRSSITKFYLAKQVFVVFLLILAAIDLSLALTEDTGQATVPPVRYTNPILYLCTWLLVLAVQHSRQWCVRKNSWFLSLFWILSVLCGVFQFQTLIRALLKDSKSNMAYSYLFFVSYGFQIVLLILTAFSGPSDSTQTPSVTASFLSSITFSWYDRTVLKGYKHPLTLEDVWDIDEGFKTRSVTSKFEAAMTKDLQKARQAFQRRLQKSQRKPEATLHGLNKKQSQSQDVLVLEEAKKKSEKTTKDYPKSWLIKSLFKTFHVVILKSFILKLIHDLLVFLNPQLLKLLIGFVKSSNSYVWFGYICAILMFAVTLIQSFCLQSYFQHCFVLGMCVRTTVMSSIYKKALTLSNLARKQYTIGETVNLMSVDSQKLMDATNYMQLVWSSVIQITLSIFFLWRELGPSILAGVGVMVLLIPVNGVLATKIRNIQVQNMKNKDKRLKIMNEILSGIKILKYFAWEPSFQEQVQGIRKKELKNLLRFGQLQSLLIFILQITPILVSVVTFSVYVLVDSANVLNAEKAFTSITLFNILRFPLSMLPMVTSSILQASVSVDRLERYLGGDDLDTSAIRRVSNFDKAVKFSEASFTWDPDLEATIQDVNLDIKPGQLVAVVGTVGSGKSSLVSAMLGEMENVHGHITIQGSTAYVPQQSWIQNGTIKDNILFGSEYNEKKYQQVLKACALLPDLEILPGGDMAEIGEKGINLSGGQKQRVSLARAAYQDADIYILDDPLSAVDAHVGKHIFNKVVGPNGLLAGKTRIFVTHGIHFLPQVDEIVVLGKGTILEKGSYRDLLDKKGVFARNWKTFMKHSGPEGEATVNNDSEAEDDDDGLIPTMEEIPEDAASLAMRRENSLRRTLSRSSRSSSRRGKSLKNSLKIKNVNVLKEKEKEVEGQKLIKKEFVETGKVKFSIYLKYLQAVGWWSILFIILFYGLNNVAFIGSNLWLSAWTSDSDNLNGTNNSSSHRDMRIGVFGALGLAQGICLLISTLWSIYACRNASKALHGQLLTNILRAPMRFFDTTPTGRIVNRFSGDISTVDDLLPQTLRSWMMCFFGIAGTLVMICMATPVFAIIIIPLSILYISVQVFYVATSRQLRRLDSVTKSPIYSHFSETVTGLPIIRAFEHQQRFLAWNEKQIDINQKCVFSWITSNRWLAIRLELVGNLVVFCSALLLVIYRKTLTGDVVGFVLSNALNITQTLNWLVRMTSEAETNIVAVERISEYINVENEAPWVTDKRPPADWPRHGEIQFNNYQVRYRPELDLVLKGITCNIKSGEKVGVVGRTGAGKSSLTNCLFRILESAGGQIIIDGIDVASIGLHDLRERLTIIPQDPILFSGSLRMNLDPFNKYSDEEVWRALELAHLRSFVSGLQLGLLSEVTEGGDNLSIGQRQLLCLGRAVLRKSKILVLDEATAAVDLETDSLIQTTIRKEFSQCTVITIAHRLHTIMDSDKIMVLDNGKIVEYGSPEELLSNRGSFYLMAKEAGIENVNHTEL

Key:
Type in all cases: functional, cell membranes, Membrane vesicle
[1] = biological target: T1, ATP-binding cassette sub-family C member 2 (Rattus norvegicus, UniProt Q63120); assay: TP_TRANSPORTER: inhibition of E217betaG uptake (E217betaG: 0.055 uM) in membrane vesicles from Mrp2-expressing Sf9 cells
[2] = biological target: T1, ATP-binding cassette sub-family C member 2; assay: TP_TRANSPORTER: inhibition of DNP-SG uptake (DNP-SG: 0.05 uM) in membrane vesicles from Mrp2-expressing Sf9 cells
[3] = substrate: C[C@]12CC[C@@H]3c4ccc(O)cc4CC[C@H]3[C@@H]1CC[C@@H]2O[C@@H]1O[C@H](C(=O)O)[C@@H](O)[C@H](O)[C@H]1O; assay: TP_TRANSPORTER: uptake in membrane vesicles from Mrp2-expressing Sf9 cells

Row | Molecule | IC50 [1] [µM] | further results
1 | N[C@@H](CCC(=O)N[C@H](CSc1ccc([N+](=O)[O-])cc1[N+](=O)[O-])C(=O)NCC(=O)O)C(=O)O | 19.3 | –
2 | C[C@]12CC[C@@H]3c4ccc(O)cc4CC[C@H]3[C@@H]1CC[C@@H]2O[C@@H]1O[C@H](C(=O)O)[C@@H](O)[C@H](O)[C@H]1O [ESTRADIOL 17B GLUCURONIDE] | – | IC50 [2]: 13.3 µM
3 | CCCCC/C=C\C\C=C/C=C/C=C/[C@@H](SC[C@@H](NC(=O)CC[C@H](N)C(=O)O)C(=O)NCC(=O)O)[C@@H](O)CCCC(=O)O [LEUKOTRIEN C4] | 0.65 | –
4 | CCCCC/C=C\C\C=C/C=C/C=C/[C@@H](SC[C@H](N)C(=O)O)[C@@H](O)CCCC(=O)O [LEUKOTRIEN E4] | 9.83 | –
5 | CCCCC/C=C\C\C=C/C=C/C=C/[C@@H](SC[C@H](NC(=O)CC[C@@H](N)C(=O)O)C(=O)O)[C@@H](O)CCCC(=O)O [LEUKOTRIEN F4] | 10 | –
6 | CCCCC/C=C\C\C=C/C=C/C=C/[C@@H](SC[C@H](N)C(=O)NCC(=O)O)[C@@H](O)CCCC(=O)O [LEUKOTRIENE D4] | 5.48 | –
7 | CN(C)C(=O)CCSC(SCCC(=O)O)c1cccc(/C=C/c2ccc3ccc(Cl)cc3n2)c1 (stereo not drawn) [MK-571] | 2.62 | –
8 | B1 | – | Km [3]: 3.91 µM
